Laboratory results reported in article PMC8880714, “Antimicrobial effect and mechanism of bovine lactoferrin against the potato common scab pathogen Streptomyces scabiei” (PLoS ONE, 2022).
Read-outs that look alike come from different tables or passages of the source. Where no end group is shown, it is not given here.

What was measured:
[1] = system: Streptomyces scabiei S58; assay: microbe, parasite or virus in culture; format: cell-based
Procedure: S. scabiei S58, isolated from potatoes grown in Kagoshima, Japan, was used in this study. […] For antimicrobial assays, the spores of the isolate were incubated at 28 °C in tryptic soy broth (TSB) (Becton Dickinson, Sparks, USA). Escherichia coli strains JM109 and BL21(λDE3) were grown at 37 °C in Luria-Bertani broth supplemented with 100 μg/mL ampicillin for propagation.
A 12-well plate was used to assess the antimicrobial activity of LF, hydrolysate, LFcinB, and synthetic peptides. One milliliter of TSB containing each test substance was added to each well and then the spores of S. scabiei S58, prepared as described above, were added into each well at a final concentration of 2 × 10^5 spores/mL. The mixture was incubated at 28 °C for 72 h, and the absorbance was measured at 600 nm to monitor bacterial growth. To further confirm whether the antimicrobial activity is due to growth inhibition or bactericidal effect, 1 mL of TSB containing 2 ×10^3 spores and bLF (1 mg/mL) was incubated at 28 °C and directly cultured on STA after 5, 10, 15, 24, 48, and 72 h of incubation to count the emerging colonies. All assays were performed in duplicate and were repeated three times.

[2] = pH of the medium in which the substance was dissolved; format: physicochemical
Text: On the contrary, in the assay of Trp alone at high concentrations, because Trp cannot bind to the cell surface by itself, only a few numbers could reach the membrane (Fig 8C). In summary, Trp must reach the cell membrane to exert its antimicrobial activity. We speculated that the change in the chemical structures and properties of Arg and Trp may affect their antimicrobial activity, that is, the ability to bind to the bacterial cell surface. Therefore, we used Arg and Trp derivatives, namely arginine hydrochloride, tryptophan methyl ester hydrochloride, and tryptophan ethyl ester hydrochloride, which are easily available. Intriguingly, arginine hydrochloride completely lost the antimicrobial activity against S. scabiei shown by Arg (Fig 7A and 7C). Sephai et al. (2017) reported that the antimicrobial activity of poly-arginine is influenced by pH; at mild acidic pH (5 and 6), its MIC values decreased. We measured the pH of the medium in which arginine or arginine hydrochloride was dissolved and found it to be 9.5 and 5.5, respectively. Streptomyces spp. can grow at pH values ranging from 4.0 to 11.5 [63]. Teichoic and lipoteichoic acids in gram-positive bacterial cell walls are esterified to D-Ala residues and at neutral or lower pH, the amino group of D-Ala (pKa 8.42) is protonated, conferring a neutral or positive charge to the cell walls. […]

[3] = spores 2 × 10^5/mL, TSB, 28 °C, 72 h, absorbance 600 nm
[4] = S. scabiei S58 spores 2 × 10^5/mL, TSB, 28 °C, 72 h, absorbance 600 nm, probit analysis, mean ± SD, n = 3, N/A = no antimicrobial activity, read-out: Antimicrobial activity (IC50)

Cl.N=C(N)NCCC[C@H](N)C(=O)O [Arginine hydrochloride]
Antimicrobial activity, in words [1, 3]: complete loss of activity
pH of the medium in which the substance was dissolved [2]: 5.5

N=C(N)NCCC[C@H](N)C(=O)O [Arginine]
IC50 ([1]; Streptomyces scabiei, S58, 72 h, read-out: Antimicrobial activity (IC50)): 14300 ± 1400 µM
Concentration necessary to completely inhibit the growth of S. scabiei [1, 3]: 40 mM
pH of the medium in which the substance was dissolved [2]: 9.5

CC[C@H](C)[C@@H]1NC(=O)[C@H](CO)NC(=O)[C@@H]2CCCN2C(=O)[C@H](C)NC(=O)CNC(=O)[C@H](CC(C)C)NC(=O)[C@H](CCCCN)NC(=O)[C@H](CCCCN)NC(=O)[C@H](CCSC)NC(=O)[C@H](CCCNC(=N)N)NC(=O)[C@H](Cc2c[nH]c3ccccc23)NC(=O)[C@H](CCC(N)=O)NC(=O)[C@H](Cc2c[nH]c3ccccc23)NC(=O)[C@H](CCCNC(=N)N)NC(=O)[C@H](CCCNC(=N)N)NC(=O)[C@@H](NC(=O)[C@H](CCCCN)NC(=O)[C@@H](N)Cc2ccccc2)CSSC[C@@H](C(=O)N[C@H](C(=O)N[C@@H](CCCNC(=N)N)C(=O)N[C@@H](CCCNC(=N)N)C(=O)N[C@@H](C)C(=O)N[C@@H](Cc2ccccc2)C(=O)O)C(C)C)NC(=O)[C@H]([C@@H](C)O)NC1=O [Bovine lactoferricin (LFcinB)]
Concentration at which no growth of S. scabiei was observed [1, 3]: 3.2 µM

CCOC(=O)[C@@H](N)Cc1c[nH]c2ccccc12.Cl [Tryptophan ethyl ester hydrochloride]
IC50 [1, 4]: 1303 ± 4 µM
Antimicrobial activity, in words [1, 3]: much higher activity than that of tryptophan

COC(=O)[C@@H](N)Cc1c[nH]c2ccccc12.Cl [Tryptophan methyl ester hydrochloride]
IC50 [1, 4]: 2860 ± 326 µM
Antimicrobial activity, in words [1, 3]: much higher activity than that of tryptophan

N[C@@H](Cc1c[nH]c2ccccc12)C(=O)O [Tryptophan]
inhibition at 40000 µM ([1]; Streptomyces scabiei, S58, read-out: Inhibition of growth of S. scabiei): 40%

QQWWWQ [Synthetic peptide containing three Trp residues and no Arg residue]
Antimicrobial activity, in words [1, 3]: complete loss of activity

RRRQRR [Synthetic peptide containing no Trp residue]
Antimicrobial activity, in words [1, 3]: completely lost its activity

RRWQWR [RRWQWR]
IC50 ([1]; 72 h): 48 ± 9 µM

RRWWWR [RRWWWR]
IC50 ([1]; 72 h): 27 ± 2 µM
